This is an account of results in patent US7772263B2, “Compounds for the treatment of inflammatory disorders” (Schering Corporation, priority 2006, dated 2010).

SMILES strings stand for the structures.

For this assay, the target named is T1, purified catalytic domain of recombinant human TACE (rhTACEc) (Homo sapiens, UniProt P78536, N452Q/S266A).
T1 construct: rhTACEc, Residue 215 to 477 with two mutation (S266A and N4520) and a 6×His tail; 6xHis (C); made in house; host or cells: baculovirus/Hi5 insect cells
T1 sequence (P78536 215-477 S266A/N452Q limits assumed): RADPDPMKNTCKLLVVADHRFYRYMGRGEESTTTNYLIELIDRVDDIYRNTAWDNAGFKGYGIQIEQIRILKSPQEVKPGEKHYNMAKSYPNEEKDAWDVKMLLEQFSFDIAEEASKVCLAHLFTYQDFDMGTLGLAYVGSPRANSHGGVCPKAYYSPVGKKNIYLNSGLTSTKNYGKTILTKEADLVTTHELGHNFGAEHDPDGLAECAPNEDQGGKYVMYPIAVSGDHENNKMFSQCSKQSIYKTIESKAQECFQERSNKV
In words: TACE kinetic assay, cleavage of internally quenched fluorescent peptide substrate SPDL-3. Format: biochemical. To be noted: TACE; class letters A-D; read-out: Ki Rating.
Take `COc1ccc2c(c1)C(=O)N(C[C@@]1(C#Cc3ccc4c(c3)C(=O)C(=O)N4)NC(=O)NC1=O)C2` [Compound 1557]: the Ki (in general, the dissociation constant of the complex between target and ligand, obtained from inhibition or displacement) was below 5 nM.

Regarding `COc1ccc2c(c1)C(=O)N(CC1(C#Cc3cccnc3)NC(=O)NC1=O)CC2` (stereo not drawn) [Compound 1558], the inhibition constant Ki lay in the range of 5 to 25 nM.

`COc1ccc2c(c1)C(=O)N(C[C@@]1(C#Cc3ccc(C)nc3N)NC(=O)NC1=O)C2` [Compound 1559]: the Ki is below 5 nM.

Take `COc1ccc2c(c1)C(=O)N(C[C@@]1(C#Cc3ccc4oc(=O)[nH]c4c3)NC(=O)NC1=O)C2` [Compound 1560]: the inhibition constant (Ki) is below 5 nM.

With `COc1ccc2c(c1)C(=O)N(C[C@@]1(C#Cc3cncnc3N)NC(=O)NC1=O)C2` [Compound 1561], the inhibition constant Ki was below 5 nM.

With `COc1ccc2c(c1)C(=O)N(C[C@@]1(C#Cc3ccc(C4(CN)NC(=O)NC4=O)cc3)NC(=O)NC1=O)C2` (stereo partly drawn) [Compound 1562], the Ki is below 5 nM.

Regarding `COc1ccc2c(c1)C(=O)N(C[C@@]1(C#Cc3ccc(F)nc3)NC(=O)NC1=O)C2` [Compound 1563], the inhibition constant Ki was below 5 nM.

As to `COc1ccc2c(c1Br)C(=O)N(CC1(C#Cc3cccnc3)NC(=O)NC1=O)C2` (stereo not drawn) [Compound 1564], the inhibition constant (Ki) fell in the range of 5 to 25 nM.

As to `CON=C(C)c1ccc(C#C[C@]2(CN3Cc4ccc(OC)cc4C3=O)NC(=O)NC2=O)cc1` [Compound 1565], the inhibitory constant (Ki) was below 5 nM.

`COc1ccc2c(c1)C(=O)N(C[C@@]1(C#Cc3ccc4[nH]c(=O)[nH]c(=O)c4c3)NC(=O)NC1=O)C2` [Compound 1566]: the Ki is below 5 nM.

In the case of `COc1ccc2c(c1)C(=O)N(C[C@@]1(C#Cc3cnc(O)nc3N)NC(=O)NC1=O)C2` [Compound 1567], the inhibitory constant (Ki) is below 5 nM.

Consider `COc1ccc2c(c1)C(=O)N(C[C@@]1(C#Cc3cnc4c(c3)CCC(=O)N4)NC(=O)NC1=O)C2` [Compound 1568], for which the Ki is below 5 nM.

As for `COc1ccc2c(c1)C(=O)N(C[C@@]1(C#Cc3cc4ccccc4[nH]c3=O)NC(=O)NC1=O)C2` [Compound 1569], the inhibitory constant (Ki) is below 5 nM.

With `COc1ccc2c(c1)C(=O)N(C[C@@]1(C#Cc3ccc(C(=O)NS(=O)(=O)C4CC4)cc3)NC(=O)NC1=O)C2` [Compound 1570], the Ki was below 5 nM.

`COc1ccc2c(c1)C(=O)N(C[C@@]1(C#Cc3cnc(Cl)c(O)c3)NC(=O)NC1=O)C2` [Compound 1571]: the Ki was below 5 nM.

Consider `COc1ccc2c(c1)C(=O)N(C[C@@]1(C#Cc3cnc(N4CCSCC4)nc3N)NC(=O)NC1=O)C2` [Compound 1572], for which the Ki was below 5 nM.

With `COc1ccc2c(c1)C(=O)N(C[C@@]1(C#Cc3cnc(Cl)nc3N)NC(=O)NC1=O)C2` [Compound 1573], the inhibition constant Ki is below 5 nM.

With `COc1ccc2c(c1)C(=O)N(C[C@@]1(C#Cc3ccc(OC4SC(=O)NC4=O)cc3)NC(=O)NC1=O)C2` (stereo partly drawn) [Compound 1574], the inhibitory constant (Ki) was below 5 nM.

`COc1ccc2c(c1)C(=O)N(C[C@@]1(C#Cc3ccc(C(C)=NO)nc3)NC(=O)NC1=O)C2` [Compound 1575]: the Ki was below 5 nM.

For `COc1ccc2c(c1)C(=O)N(C[C@@]1(C#Cc3ccc4c(c3)CCC43NC(=O)NC3=O)NC(=O)NC1=O)C2` (stereo partly drawn) [Compound 1576], the Ki is below 5 nM.

For `COc1ccc2c(c1)C(=O)N(C[C@@]1(C#Cc3ccc(C4(C5CC5)NC(=O)NC4=O)cc3)NC(=O)NC1=O)C2` (stereo partly drawn) [Compound 1577], the Ki was below 5 nM.

As for `COc1ccc2c(c1)C(=O)N(C[C@@]1(C#Cc3ccc(C)[nH]c3=O)NC(=O)NC1=O)C2` [Compound 1578], the inhibitory constant (Ki) was below 5 nM.

Regarding `COc1ccc2c(c1)C(=O)N(C[C@@]1(C#Cc3cnccc3OC)NC(=O)NC1=O)C2` [Compound 1579], the Ki was below 5 nM.

In the case of `COc1ccc2c(c1)C(=O)N(C[C@@]1(C#Cc3cccc(C4(C)NC(=O)NC4=O)c3)NC(=O)NC1=O)C2` (stereo partly drawn) [Compound 1580], the inhibition constant Ki was below 5 nM.
